From US9169252B2 (BRISTOL-MYERS SQUIBB COMPANY, priority 2014, dated 2015)
Where two headings read alike, the source gives them in different places.

What was measured:
IRAK4 = IRAK4 (Homo sapiens (Human), UniProt Q9NWZ3); test: IRAK4 Inhibition Assay; format: biochemical; details: ATP 500 μM; IRAK4 0.6 nM; read-out: IRAK4 IC50
Method in brief: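 Mobility-shift readout: fluorescent substrate and phosphoproduct resolved electrophoretically on Caliper LabChip 3000 after EDTA quench (35 mM). Enzyme reaction of IRAK4, substrates and test compound ran 60 min at room temperature.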

[1] = tested on: TLR2 induced IL-6 in peripheral blood mononuclear cells (PBMCs); test: PBMC TLR2 Induced IL-6 Assay; format: cell-based, human; details: human PBMCs, lipoteichoic acid stimulated, IL-6 by ELISA; for EC50: read-out: Cell EC50; for IC50: read-out: Cell IC50
Method in brief: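 Lipoteichoic acid at 10 µg/ml served as TLR2 stimulus for 5 hours, following a 30-minute compound pretreatment at 37° C. Cells were Ficoll-isolated human PBMCs, 250000 cells/well, cultured in RPMI plus 10% heat-inactivated FCS.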

Sequence of IRAK4 (Q9NWZ3 whole entry, species assumed): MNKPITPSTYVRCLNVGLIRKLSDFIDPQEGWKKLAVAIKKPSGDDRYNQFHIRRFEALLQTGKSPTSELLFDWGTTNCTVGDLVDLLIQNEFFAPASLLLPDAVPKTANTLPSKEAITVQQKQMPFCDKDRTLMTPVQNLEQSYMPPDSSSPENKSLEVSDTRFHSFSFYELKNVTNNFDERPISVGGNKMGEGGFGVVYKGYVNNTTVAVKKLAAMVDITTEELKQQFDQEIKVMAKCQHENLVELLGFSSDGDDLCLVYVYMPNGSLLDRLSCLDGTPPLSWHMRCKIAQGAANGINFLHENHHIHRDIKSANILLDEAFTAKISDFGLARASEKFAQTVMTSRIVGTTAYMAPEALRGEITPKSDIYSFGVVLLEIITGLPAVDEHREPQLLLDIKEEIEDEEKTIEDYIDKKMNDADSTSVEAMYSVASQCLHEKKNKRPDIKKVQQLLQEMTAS

Row | Compound | IC50 (IRAK4) [nM] | EC50 ([1]; Homo sapiens, PBMC) [nM] | IC50 ([1]; Homo sapiens, PBMC) [nM] | EC50 [1] [nM]
1 | CC(C)Nc1cc(N2CCc3cc(C#N)cnc32)ncc1C(=O)NC[C@@H](F)C(C)(C)O [Example 567] | 9.9 | 164 | 264 | 
2 | CC(C)[C@@H](CO)Nc1cc(-n2ncc3cc(C#N)cnc32)ncc1C(=O)NC[C@@H](F)C(C)(C)O [Example 569] | 13 | 242 |  | 
3 | CC(C)(O)[C@H](F)CNC(=O)c1cnc(-n2ncc3cc(C#N)cnc32)cc1NCC(C)(C)N1CCOCC1 [Example 570] | 10.7 | 425 |  | 
4 | CC(C)(O)[C@H](F)CNC(=O)c1cnc(-n2ncc3cc(C#N)cnc32)cc1NCc1cocn1 [Example 571] | 15.2 |  | 101 | 
5 | CCNc1cc(-n2ncc3cc(C#N)c(N)nc32)ncc1C(=O)NC[C@@H](F)C(C)(C)O [Example 577] | 3.2 |  | 175 | 
6 | CCCNc1cc(-n2ncc3cc(C#N)c(N)nc32)ncc1C(=O)NC[C@@H](F)C(C)(C)O [Example 578] | 2.6 |  | 218 | 
7 | CC(C)Nc1cc(-n2ncc3cnc(N)nc32)ncc1C(=O)NC[C@@H](F)C(C)(C)O [Example 579] | 3.9 |  | 269 | 
8 | CCNc1cc(-n2ncc3cnc(N)nc32)ncc1C(=O)NC[C@@H](F)C(C)(C)O [Example 580] | 10.7 |  | 487 | 
9 | CC(C)Nc1cc(-n2ncc3cc(C#N)cnc32)ncc1C(=O)NC1CCN(C(=O)C2CN(S(C)(=O)=O)C2)CC1 [Example 584] | 10 | 209 | 508 | 
10 | CC(C)(O)[C@H](F)CNC(=O)c1cnc(-n2ncc3cc(C#N)cnc32)cc1NCCNS(C)(=O)=O [Example 586] | 9.7 |  | 259 | 
11 | CC(C)(O)[C@H](F)CNC(=O)c1cnc(-n2ncc3cc(C#N)cnc32)cc1NCCNC(=O)OC(C)(C)C(F)(F)F [Example 587] | 13.8 |  | 298 | 
12 | CC[C@@H](CO)Nc1cc(-n2ncc3cc(Cl)cnc32)ncc1C(=O)NC[C@@H](F)C(C)(C)O [Example 589] | 4.1 |  | 361 | 
13 | C[C@H](F)CNc1cc(-n2ncc3cc(C#N)c(N)nc32)ncc1C(=O)NC[C@@H](F)C(C)(C)O [Example 590] | 1.9 |  | 129 | 
14 | C[C@@H](F)CNc1cc(-n2ncc3cc(C#N)c(N)nc32)ncc1C(=O)NC[C@@H](F)C(C)(C)O [Example 591] | 2.7 |  | 160 | 
15 | CC(C)(F)CCNc1cc(-n2ncc3cc(C#N)c(N)nc32)ncc1C(=O)NC[C@@H](F)C(C)(C)O [Example 599] | 4.8 |  | 275 | 
16 | CC[C@@H](F)CNc1cc(-n2ncc3cc(Cl)cnc32)ncc1C(=O)NC[C@@H](F)C(C)(C)O [Example 602] | 9.3 |  | 233 | 
17 | CC(C)(CNc1cc(-n2ncc3cc(Cl)cnc32)ncc1C(=O)NC[C@@H](F)C(C)(C)O)OC(F)F [Example 603] | 6.7 |  | 321 | 

Row | Compound | IC50 (IRAK4) [nM] | EC50 ([1]; Homo sapiens, PBMC) [nM] | IC50 ([1]; Homo sapiens, PBMC) [nM] | EC50 [1] [nM]
18 | CC(C)(O)[C@H](F)CNC(=O)c1cnc(-n2ncc3cc(C#N)cnc32)cc1N[C@H]1CC[C@H](C(C)(C)O)CC1 [Example 606, 6-(5-Cyano-1H-pyrazolo[3,4-b]pyridin-1-yl)-N—((R)-2-fluoro-3-hydroxy-3-methylbutyl)-4-(((1r,4R)-4-(2-hydroxypropan-2-yl)cyclohexyl)amino)nicotinamide] | 4 | 127 |  | 
19 | CC(C)(O)[C@H]1CCC[C@@H](Nc2cc(-n3ncc4cc(C#N)cnc43)ncc2C(=O)NC[C@@H](F)C(C)(C)O)C1 [Example 612] | 5.6 | 163 | 262 | 
20 | CC(C)(O)[C@H](F)CNC(=O)c1cnc(N2CCc3cc(C#N)cnc32)cc1NC1CC1 [Example 616] | 10.9 | 305 | 425 | 
21 | CC(C)(O)[C@H]1CC[C@H](Nc2cc(-n3ncc4cc(C#N)cnc43)ncc2C(=O)NC[C@@H](F)C(C)(C)O)C1 [Example 617] | 2.8 |  | 485 | 
22 | CC(C)(O)[C@H](F)CNC(=O)c1cnc(-n2ncc3cc(F)cnc32)cc1NC1CCC(F)C1 (stereo partly shown) [Example 620] | 3.4 |  |  | 114
23 | CC(C)(O)[C@H](F)CNC(=O)c1cnc(-n2ncc3cc(F)cnc32)cc1NC1CCC(F)C1 (stereo partly shown) [Example 621] | 4 |  |  | 139
24 | CC(C)(O)[C@H](F)CNC(=O)c1cnc(-n2ncc3cc(C#N)cnc32)cc1N[C@H]1CC[C@H](NC2COC2)CC1 [Example 622] | 5.2 |  | 132 | 
25 | CC(C)(O)[C@H](F)CNC(=O)c1cnc(-n2ncc3cc(C#N)cnc32)cc1N[C@H]1CC[C@H](NC(=O)C2CC2)CC1 [Example 623] | 5.2 |  | 484 | 
26 | CC(C)(O)[C@H](F)CNC(=O)c1cnc(-n2ncc3cc(C#N)cnc32)cc1NC12CC3CC(CC(O)(C3)C1)C2 [Example 624] | 2.1 |  | 68 | 
27 | CC(C)(O)[C@H]1CC[C@H](Nc2cc(-n3ncc4cc(Cl)cnc43)ncc2C(=O)NC[C@@H](F)C(C)(C)O)C1 [Example 628] | 3.3 |  | 148 | 
28 | CNC(=O)[C@H]1CC[C@H](NC(=O)c2cnc(-n3ncc4cc(C#N)c(N)nc43)cc2N[C@@H]2CCCC[C@H]2F)CC1 [Example 629] | 3.3 |  | 135 | 
29 | CNC(=O)[C@H]1CC[C@H](NC(=O)c2cnc(-n3ncc4cc(C#N)c(N)nc43)cc2N[C@H]2CCCC[C@@H]2F)CC1 [Example 630] | 2.2 |  | 30 | 
30 | CC(C)(O)[C@H](F)CNC(=O)c1cnc(-n2ncc3cc(C#N)c(N)nc32)cc1NC1CC1 [Example 631] | 3.4 |  | 66 | 
31 | CC(C)(O)[C@H](F)CNC(=O)c1cnc(-n2ncc3cc(C#N)c(N)nc32)cc1NC12CC3CC(CC(O)(C3)C1)C2 [Example 632] | 2.6 |  | 149 | 
32 | CC(C)(O)[C@H](F)CNC(=O)c1cnc(-n2ncc3cc(C#N)cnc32)cc1N[C@H]1CC[C@H](NC(=O)C(F)F)CC1 [Example 633] | 3.3 |  | 257 | 
33 | CC(C)(O)[C@H](F)CNC(=O)c1cnc(-n2ncc3cc(C#N)cnc32)cc1N[C@H]1CC[C@H](NC(=O)c2ccccc2F)CC1 [Example 634] | 3.9 |  | 277 | 
34 | CC(C)(F)[C@H](F)CNC(=O)c1cnc(-n2ncc3cc(C#N)cnc32)cc1NC12CC3CC(CC(O)(C3)C1)C2 [Example 636] | 3 |  | 293 | 

Continued, in another order:

Row | IC50 (IRAK4) [nM] | Compound | EC50 ([1]; Homo sapiens, PBMC) [nM] | IC50 ([1]; Homo sapiens, PBMC) [nM] | EC50 [1] [nM]
35 | 8.9 | CCNc1cc(-n2ncc3cc(C#N)cnc32)ncc1C(=O)NC[C@@H](F)C(C)(C)O [Example 568] | 661 | 1370 | 
36 | 15.3 | CC(C)(O)[C@H](F)CNC(=O)c1cnc(-n2ncc3cc(C#N)cnc32)cc1NCC(F)F [Example 574] |  | 258 | 
37 | 5.8 | CC(C)(C)CNc1cc(-n2ncc3cc(C#N)cnc32)ncc1C(=O)NC[C@@H](F)C(C)(C)O [Example 576] |  | 153 | 
38 | 8.4 | CC(C)(O)[C@H](F)CNC(=O)c1cnc(-n2ncc3cc(C#N)cnc32)cc1NCC1(F)CCC1 [Example 581] |  | 227 | 
39 | 3.8 | C[C@@H](F)CNc1cc(-n2ncc3cc(C#N)cnc32)ncc1C(=O)NC[C@@H](F)C(C)(C)O [Example 582] |  | 109 | 
40 | 4.1 | C[C@H](F)CNc1cc(-n2ncc3cc(C#N)cnc32)ncc1C(=O)NC[C@@H](F)C(C)(C)O [Example 583] |  | 188 | 
41 | 8.5 | CC(C)(CN)CNc1cc(-n2ncc3cc(C#N)cnc32)ncc1C(=O)NC[C@@H](F)C(C)(C)O [Example 585] |  | 147 | 
42 | 4.4 | CC[C@@H](CO)Nc1cc(-n2ncc3cc(C#N)cnc32)ncc1C(=O)NC[C@@H](F)C(C)(C)O [Example 588] |  | 506 | 
43 | 19.6 | COC(C)(C)CNc1cc(-n2ncc3cc(C#N)cnc32)ncc1C(=O)NC[C@@H](F)C(C)(C)O [Example 593] |  | 408 | 
44 | 5.3 | CC(C)(O)[C@H](F)CNC(=O)c1cnc(-n2ncc3cc(C#N)cnc32)cc1NCCCF [Example 595] |  | 129 | 
45 | 15.6 | CC(C)C(O)CNc1cc(-n2ncc3cc(C#N)cnc32)ncc1C(=O)NC[C@@H](F)C(C)(C)O (stereo partly shown) [Example 597] |  | 307 | 
46 | 16.6 | CC(C)(O)[C@H](F)CNC(=O)c1cnc(-n2ncc3cc(C#N)cnc32)cc1NCCOC(F)F [Example 598] |  | 54 | 
47 | 5.3 | CC(C)(F)CCNc1cc(-n2ncc3cc(C#N)cnc32)ncc1C(=O)NC[C@@H](F)C(C)(C)O [Example 600] |  | 477 | 
48 | 14.2 | CC(C)(CNc1cc(-n2ncc3cc(C#N)cnc32)ncc1C(=O)NC[C@@H](F)C(C)(C)O)OC(F)F [Example 601] |  | 490 | 
49 | 7.5 | CC(C)(O)[C@H](F)CNC(=O)c1cnc(-n2ncc3cc(C#N)cnc32)cc1NCC1CC1 [Example 605] |  | 165 | 
50 | 4 | CC(C)(O)[C@H](F)CNC(=O)c1cnc(-n2ncc3cc(C#N)cnc32)cc1N[C@H]1CC[C@@](C)(O)CC1 [Example 607] | 332 |  | 
51 | 12.6 | CC(C)(O)[C@H](F)CNC(=O)c1cnc(-n2ncc3cc(C#N)cnc32)cc1N[C@H]1CC[C@](C)(O)CC1 [Example 608] | 318 |  | 
52 | 2.8 | CC(C)(O)[C@H](F)CNC(=O)c1cnc(-n2ncc3cc(C#N)cnc32)cc1NC12CCC(O)(CC1)C2 [Example 613] | 157 | 130 | 
53 | 1.8 | CC(C)(O)[C@H](F)CNC(=O)c1cnc(-n2ncc3cc(C#N)cnc32)cc1NC12CC(C1)C2 [Example 635] |  | 375 | 
